Experimental data as given in PubChem BioAssay (NCI).
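In this assay, cells in 96-well plates receive the compound at five concentrations for 48 hours. Endpoints are linearly interpolated between the surrounding concentrations. Definition used: TGI = concentration required for complete inhibition of growth.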

Experiments:
Experiment in all cases: NCI-60 cell line screen, 48 h
786-0 renal = test system: 786-0 renal
HCT-116 colon = test system: HCT-116 colon
HT29 colon = test system: HT29 colon
K-562 leukemia = test system: K-562 leukemia
KM12 colon = test system: KM12 colon
MDA-MB-231 breast = test system: MDA-MB-231 breast
OVCAR-4 ovarian = test system: OVCAR-4 ovarian
RPMI-8226 leukemia = test system: RPMI-8226 leukemia
SF-539 CNS = test system: SF-539 CNS
T-47D breast = test system: T-47D breast
UACC-257 melanoma = test system: UACC-257 melanoma

Row | SMILES | TGI (786-0 renal) | TGI (HCT-116 colon) | TGI (HT29 colon) | TGI (K-562 leukemia) | TGI (KM12 colon) | TGI (MDA-MB-231 breast) | TGI (OVCAR-4 ovarian) | TGI (RPMI-8226 leukemia) | TGI (SF-539 CNS) | TGI (T-47D breast) | TGI (UACC-257 melanoma)
1 | COc1ccc([C@H]2[C@H]3COC(=O)[C@H]3C(C#N)=C3Sc4ccccc4N32)cc1 | > 100 µM | > 100 µM | 37.7 µM | > 100 µM | > 91.2 µM | > 67.2 µM | > 100 µM | 72 µM | > 100 µM | > 82.5 µM | > 100 µM
2 | COC(=O)Cc1cc(O)c2c(c1O)C(=O)c1ccccc1C2=O | > 77.1 µM | > 100 µM | > 46.4 µM | > 100 µM | > 100 µM | 97.5 µM | > 100 µM | > 100 µM | > 100 µM | > 100 µM | > 100 µM
3 | CC1=NNC(=O)C1C1C(=O)NN=C(c2c[nH]c3ccccc23)C1Br (configuration not stated) | > 100 µM | > 100 µM | > 100 µM | > 100 µM | 34.4 µM | > 100 µM | – | > 100 µM | > 100 µM | > 100 µM | > 100 µM
4 | CC(=O)Nc1ccc2c(C)c3c(nc2n1)[nH]c1ccccc13 | > 100 µM | 58.4 µM | > 100 µM | > 100 µM | 47.6 µM | > 100 µM | > 100 µM | 55.2 µM | > 100 µM | 55.5 µM | > 100 µM
5 | CN(C)CCNc1ccc2c(=O)n(CCN(C)C)c(=O)n3c4ccc(O)cc4c(=O)c1c23 | 0.156 µM | 0.308 µM | 0.229 µM | – | 2.15 µM | 0.12 µM | 0.38 µM | 0.417 µM | < 0.0389 µM | 0.717 µM | 0.795 µM
6 | COC1CC(N)(c2ccccc2)C(O)C(C)O1 (configuration not stated) | > 100 µM | > 100 µM | – | > 100 µM | – | > 100 µM | > 100 µM | > 100 µM | > 100 µM | > 100 µM | > 100 µM
7 | COC(=O)C1(NC(=O)C(CC(=O)OCc2ccccc2)NC(=O)OCc2ccccc2)CCCCCC1 (configuration not stated) | > 100 µM | > 100 µM | 50.7 µM | 82.9 µM | > 100 µM | > 100 µM | 43.8 µM | 21.9 µM | 49.2 µM | > 100 µM | –
8 | C/C(CC(O)(C(F)(F)F)C(F)(F)F)=N\NC(N)=O | > 10 µM | > 10 µM | > 10 µM | > 10 µM | > 10 µM | > 10 µM | > 10 µM | > 10 µM | > 10 µM | > 10 µM | > 10 µM
9 | O=C(Nc1ccccc1)N(C1=NCC(CI)S1)c1ccc(F)c(F)c1 (configuration not stated) | > 100 µM | > 100 µM | > 100 µM | > 100 µM | > 100 µM | 83.5 µM | > 100 µM | > 100 µM | > 100 µM | > 100 µM | > 100 µM
10 | Cn1c(=O)c2c(nc3n(CC(O)CCl)c(=O)ccn23)n(C)c1=O (configuration not stated) | > 100 µM | > 100 µM | > 100 µM | > 100 µM | > 100 µM | > 100 µM | > 100 µM | > 100 µM | > 100 µM | > 100 µM | > 100 µM
11 | CCOC(=O)c1c(C)n(Cc2ccc(Cl)cc2Cl)c2c1cc(O)c1[nH]c3c(c12)CCCC3 | > 100 µM | > 100 µM | 68.2 µM | – | 67.2 µM | > 100 µM | 41.7 µM | 50.7 µM | 56.9 µM | > 100 µM | 43.2 µM
12 | N#CCCN(CCC#N)c1ccc(/C=C2\N=C(c3ccccc3)N(c3ccc(F)cc3)C2=O)cc1 | > 100 µM | > 100 µM | > 100 µM | > 100 µM | > 100 µM | > 100 µM | > 100 µM | > 100 µM | > 100 µM | > 100 µM | > 100 µM
13 | Cc1ccc(Nc2nc3[nH]ccc3c(=O)[nH]2)cc1 | > 100 µM | > 100 µM | > 100 µM | > 100 µM | > 100 µM | > 100 µM | > 100 µM | > 100 µM | > 100 µM | > 100 µM | > 100 µM
14 | O=c1[nH]/c(=C/c2ccc(OCc3ccccc3)cn2)c(=O)[nH]/c1=C/c1ccccc1 | > 100 µM | > 100 µM | > 100 µM | > 100 µM | > 100 µM | > 100 µM | > 100 µM | > 100 µM | > 67 µM | > 100 µM | > 100 µM
15 | CN(C)CC(O)c1ccc(Cl)c2ccccc12 (configuration not stated) | > 100 µM | > 100 µM | > 100 µM | – | > 100 µM | > 73.4 µM | > 100 µM | 11 µM | > 100 µM | 84.4 µM | 38.2 µM
16 | CSc1ncc2c(n1)C(C#N)C1Sc3ccccc3N1C2=O (configuration not stated) | > 100 µM | > 100 µM | > 100 µM | – | > 100 µM | > 100 µM | > 100 µM | > 100 µM | > 100 µM | > 100 µM | > 100 µM
17 | O=[N+]([O-])c1ccccc1OCCOc1ccccc1[N+](=O)[O-] | > 100 µM | > 100 µM | > 100 µM | > 100 µM | > 100 µM | > 100 µM | > 100 µM | > 100 µM | > 100 µM | > 100 µM | > 100 µM
18 | C=CCC1(C#N)C(=S)NC2=C(C(=O)CC(C)(C)C2)C1c1ccccc1 (configuration not stated) | > 100 µM | > 100 µM | > 100 µM | > 100 µM | > 100 µM | > 100 µM | 88.9 µM | > 100 µM | > 100 µM | > 100 µM | –
19 | CCc1n[nH]c(=O)n1CCCCCCCCCCCCn1c(CC)n[nH]c1=O | > 100 µM | > 100 µM | > 100 µM | > 100 µM | > 100 µM | > 100 µM | > 100 µM | > 100 µM | > 100 µM | 82.9 µM | 40.2 µM
20 | CC(C)(C)c1ccc(OCCOc2ccc(C(C)(C)C)cc2N)c(N)c1 | > 100 µM | > 100 µM | > 100 µM | > 100 µM | > 100 µM | > 100 µM | > 100 µM | > 100 µM | > 100 µM | > 100 µM | > 100 µM
21 | O=C1c2cccc([N+](=O)[O-])c2C(=O)N1Cc1ccccc1 | > 100 µM | > 100 µM | > 100 µM | > 100 µM | > 100 µM | > 100 µM | > 100 µM | > 100 µM | > 100 µM | > 100 µM | > 100 µM
